The record followed here is PMC9154793, “Design, synthesis, and biological evaluation of triazole-pyrimidine-methylbenzonitrile derivatives as dual A2A/A2B adenosine receptor antagonists” (Journal of Enzyme Inhibition and Medicinal Chemistry, 2022).

SMILES strings stand for the structures. Read-outs that look alike come from different tables or passages of the source.

One may read the Cmax as the highest concentration seen after dosing. For orientation: Tmax means the time at which the peak concentration occurs. One may read the bioavailability as the share of a dose that reaches the circulation, judged against a reference dose that is usually intravenous. Usually IC50 stands for the concentration at which inhibition is half-maximal. Broadly, the inhibition is the relative decrease from the control value, in per cent.

The nature of data set [1]: In vivo pharmacokinetics study in Balb/c mice. Conditions: for Cmax / Tmax / half-life / AUC(0-inf) / bioavailability / AUC(0-t): female, Balb/c, mouse, plasma; for bioavailability: oral 30 mg/kg vs i.v. 10 mg/kg, read-out: F (absolute bioavailability). The protocol:
The in vivo pharmacokinetic (PK) profiles of compounds 7f and 7i were examined in […] Balb/c mice (Table 5 and Figure 5). […] After the intravenous (i.v.) administration of 10 mg/kg, the maximum plasma concentration of compounds 7f and 7i were 5010.30 µg/l at 0.25 h and 7266.60 µg/l at 0.25 h, respectively. […] These PK parameters can be used to evaluate the drug-like properties of compounds 7f and 7i, so as to clarify their effectiveness and obtain better clinical treatment effects.
The absolute bioavailabilities of synthetic compounds (7f, 7i) were studied in female Bal b/c mice (Jinan Pengyue Experimental Animal Breeding Co., Ltd.). The mice were divided into four groups each having six mice and were collected at crossover time points, with three mice at each point. Pharmacokinetics (PK) was evaluated after a single dose of 30 mg/kg oral gavage (Oral) or 10 mg/kg intravenous (i.v.) administration. After oral administration and i.v. injection, blood samples were obtained from the suborbital veniplex at pre, 15 min, 30 min, 1 h, 2 h, 4 h, 6 h, 8 h, 12 h, 24 h (Oral) and pre, 5 min, 15 min, 30 min, 1 h, 2 h, 4 h, 6 h, 8 h, 12 h, 24 h (i.v.). Approximately 200 μl of blood was collected at each time point. All blood samples were put into plastic microcentrifuge tubes containing Heparin-Na as an anticoagulant. Microcentrifuge tubes with blood samples and anticoagulant were inverted several times for proper mixing of the tube contents to centrifugation for plasma. Plasma samples will be centrifuged at 12,000 rpm for 8 min at 4 °C to obtain the supernatant. The serum sample (25 μl) was treated with acetonitrile (100 μl), after which the mixture was vortex-mixed for 8 min and centrifuged at 10,000 rpm for 10 min at 4 °C. The supernatant layer was collected and then 50 μl of supernatant was injected for the UPLC-MS/MS analysis (details of the analytical method see Supporting information). […]
9. Analytical method of pharmacokinetics assay
Animal experiments were performed according to the institutional ethical guidelines on animal care and approved by the Institute Animal Care and Use Committee at Binzhou […]
Female Bal b/c mice (sourced from Jinan Pengyue Experimental Animal Breeding Co., Ltd.) approximately 6-8 weeks of age, and a weight of approximately 20-30 g. All of the mice were permitted with free access to standard pelleted food and water ad libitum and were kept in clean cages under controlled conditions (light/ dark cycle of 12 h, 60 ± 2% humidity, and 25 ± 1 °C). Before the day of administration, […] were fasted for 12 h but allowed water ad libitum.
9.2 Design of bioavailability study
The mice were divided into 4 groups each having six mice and were collected at crossover time points, with three mice at each point. Pharmacokinetics (PK) was […]
evaluated after a single dose of 30 mg/kg oral gavage (Oral) and 10 mg/kg intravenous […]
(i.v.) administration. The blood samples were obtained from the suborbital veniplex.
Each cohort had three mice, and plasma was collected at pre, 5 min, 15 min, 30 min, 1 […]
h, 2 h, 4 h, 6 h, 8 h, 12 h, and 24 h post dose for intravenous administration. Plasma […]
was collected at pre, 15 min, 30 min, 1 h, 2 h, 4 h, 6 h, 8 h, 12 h, and 24 h post dose for […]
9.3 Samples collection and quantitative analysis
Approximately 200 μL of blood was collected at each time point. All blood samples […]
were put into plastic microcentrifuge tubes containing Heparin-Na as anticoagulant. […]
microcentrifuge tubes with blood samples and anticoagulant were inverted several […]
times for proper mixing of the tube contents to centrifugation for plasma. Plasma […]
samples will be centrifuged at 12000 rpm for 8 min at 4 ℃ to obtain the supernatant.
The serum sample (25 μL) was treated with acetonitrile (100 μL), after which the […]
mixture was vortex-mixed for 8 min and centrifuged at 10000 rpm for 10 min at 4 ℃.
The supernatant layer was collected and then 50 μL of supernatant was injected for the […]
9.4 Chromatography and mass spectrometry conditions […]

Data set [2] addresses T1, human A2A AR (Homo sapiens, UniProt P29274). Kind of data set: A2A AR radioligand binding assay ([3H]-ZM241385, HEK-293 cell membranes). Particulars: hA2A AR, HEK-293 membranes, [3H]-ZM241385; mean ± SEM; read-out: Radioligand binding assays IC50. Here is the method:
We further tested the IC50 values of compounds 7f, 7i, 17, 22, and AB928 in inhibiting the cAMP production of CHO cells expressing hA2A AR or hA2B AR (Table 2). […] In addition, the competitive binding experiments of compounds 7f, 7i, and AB928 were performed using membrane preparation of HEK-293 cells expressing human A2A AR (Table 3).
The target compounds were tested to evaluate their affinity for the A2A AR on HEK-293 cell membranes expressing human A2A AR. [^3H]-ZM241385 was used as a radioligand. The assay buffer (50 mM Tris-HCl, pH 7.4; 10 mM MgCl2; 1 mM EDTA; 1 μg/ml adenosine deaminase), wash buffer (50 mM Tris-HCl, pH 7.4; 154 mM NaCl), and 0.5% PEI solution were prepared and stored at 4 °C for use. The affinities were tested following the procedure reported by Hu et al[4].

The target of data set [3] is T1, human A2A AR. Kind of data set: cAMP functional assay in CHO-K1/ADORA2A/Gα15 cells (NECA-stimulated, HTRF).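 On all read-outs here: inhibition of NECA-driven intracellular cAMP build-up in the A2A-expressing cells, quantified with cAMP-d2 plus Eu3+-labelled anti-cAMP detection reagent.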 Conditions: for IC50: CHO cells expressing hA2A AR, read-out: cAMP IC50 hA2A AR; for IC50 / inhibition at 0.01 µM / inhibition at 0.1 µM / inhibition at 1 µM: mean ± SEM; for inhibition at 0.01 µM / inhibition at 0.1 µM / inhibition at 1 µM: CHO-K1, relative to ZM241385 at 1 μM; for inhibition at 0.01 µM: compound at 10 nM, read-out: hA2A AR (%) inhibition of cAMP, 10 nM; for inhibition at 0.1 µM: compound at 100 nM, read-out: hA2A AR (%) inhibition of cAMP, 100 nM; for inhibition at 1 µM: compound at 1000 nM, read-out: hA2A AR (%) inhibition of cAMP, 1000 nM. Format: cell-based. Background: In TR-FRET formats the signal depends on donor and acceptor labels being close together.
Experimental: In the cAMP assay, CHO-K1/ADORA2A/Gα15 cells expressing human A2A AR and CHO-K1/ADORA2b/Gα15 cells expressing human A2B AR were activated by 5′-(N-ethylcarboxamido)adenosine (NECA) and triggered the accumulation of intracellular cAMP concentration.
CHO-K1/ADORA2A/Gα15 cells expressing human A2A AR and CHO-K1/ADORA2b/Gα15 cells expressing human A2B AR were both constructed by Genscript Biotech Corporation. […] The test stock solutions were diluted with different gradients for use. The procedure was exemplified by the cAMP functional assay on the A2A receptor: 10,000 cells/well of CHO-K1/ADORA2A/Gα15 were seeded in a 384-well plate in 20 μl of assay buffer. […] Then, 10 μl of detection reagent (cAMP-d2 and anti-cAMP-Eu3+) was added into each well of the plate and incubated at room temperature for 1 h.

The mark [4] stands for this setting: iv, i.v. 10 mg/kg, read-out: Cmax i.v.
Where [5] appears, read: oral 30 mg/kg, read-out: Cmax Oral.
The mark [6] stands for this setting: iv, i.v. 10 mg/kg, mean n = 3, read-out: t1/2 i.v. (converted).
[7] abbreviates: iv, i.v. 10 mg/kg, read-out: AUC0→∞ i.v.
Where [8] appears, read: oral 30 mg/kg, mean n = 3, read-out: t1/2 Oral (converted).
Setting [9] is: oral 30 mg/kg, read-out: AUC0→t Oral.
[10] abbreviates: oral 30 mg/kg, read-out: AUC0→∞ Oral.
Where [11] appears, read: po, 30 mg/kg, oral 30 mg/kg, read-out: tmax Oral.

T1 sequence (P29274 whole entry): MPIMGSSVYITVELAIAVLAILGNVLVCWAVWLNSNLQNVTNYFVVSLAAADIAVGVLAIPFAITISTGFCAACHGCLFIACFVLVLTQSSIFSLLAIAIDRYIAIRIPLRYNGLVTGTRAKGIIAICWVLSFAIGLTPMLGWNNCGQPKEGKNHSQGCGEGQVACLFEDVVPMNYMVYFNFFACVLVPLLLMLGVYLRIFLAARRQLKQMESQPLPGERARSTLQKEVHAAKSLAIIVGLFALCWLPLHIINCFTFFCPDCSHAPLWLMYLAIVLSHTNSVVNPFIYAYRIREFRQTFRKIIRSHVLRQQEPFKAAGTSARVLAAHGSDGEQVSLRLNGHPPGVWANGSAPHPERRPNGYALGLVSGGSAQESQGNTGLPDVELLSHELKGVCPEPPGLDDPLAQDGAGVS

As for `Cc1c(C#N)cccc1-c1cc(-c2cn(Cc3cccc(C#N)n3)nn2)nc(N)n1` [Compound 7f, 6-((4-(2-Amino-6-(3-cyano-2-methylphenyl)pyrimidin-4-yl)-1H-1,2,3-triazol-1-yl)methyl)picolinonitrile], the Cmax in data set [1] (setting [4]) amounted to 5010 ng/mL. Also, in data set [1] (setting [5]), the maximum concentration (Cmax) is 7160 ng/mL. Besides, the Tmax in data set [1] (iv, 10 mg/kg, i.v. 10 mg/kg, read-out: tmax i.v.) stood at 0.25 h. Further, the half-life in data set [1] (setting [6]) is 2.67 h. The AUC(0-inf) in data set [1] (setting [7]) amounted to 17300 ng·h/mL. The bioavailability in data set [1] worked out at 87.7%. Also, the half-life in data set [1] (setting [8]) was 4.12 h. In addition, the AUC(0-t) in data set [1] (setting [9]) amounted to 45500 ng·h/mL. The AUC(0-inf) in data set [1] (setting [10]) was determined as 46200 ng·h/mL. For the same compound, in data set [1] (setting [11]), the Tmax stood at 2 h. Further, in data set [1] (i.v. 10 mg/kg), the AUC0→t/Dose i.v. was 1728.68 (µg/L*h)/(mg/kg), the “AUC0→∞/Dose i.v.” value is given as 1731.60 (µg/L*h)/(mg/kg) and the Cmax/Dose i.v. is 501.03 (µg/L)/(mg/kg). In data set [1] (oral 30 mg/kg), the “AUC0→t/Dose Oral” value was 1516.35 (µg/L*h)/(mg/kg), the “AUC0→∞/Dose Oral” value is recorded as 1541.08 (µg/L*h)/(mg/kg) and the “Cmax/Dose Oral” value is given as 238.76 (µg/L)/(mg/kg). On human A2A AR [2], the IC50 turned out to be 158 ± 56.4 nM. Moreover, at human A2A AR [3], the IC50 is 24.04 ± 0.06 nM, the inhibition at 0.01 µM was found to be 54.9 ± 1.19%, the inhibition at 0.1 µM amounted to 84.2 ± 2.94% and the inhibition at 1 µM was found to be 92.41 ± 0.43%. Moreover, on human A2A AR [3] (ratio of cAMP IC50 values vs 7i), the “fold less active than compound 7i (cAMP IC50, A2A receptor)” value was 4 fold.

For the compound `Cc1c(C#N)cccc1-c1cc(-c2cn(Cc3cccc(C(N)=O)n3)nn2)nc(N)n1` [Compound 7i, 6-((4-(2-Amino-6-(3-cyano-2-methylphenyl)pyrimidin-4-yl)-1H-1,2,3-triazol-1-yl)methyl)picolinamide], in data set [1] (setting [4]), the Cmax came to 7270 ng/mL. The Cmax in data set [1] (setting [5]) was 1010 ng/mL. Moreover, the half-life in data set [1] (setting [6]) is 2.19 h. Also, the AUC(0-t) in data set [1] (iv, i.v. 10 mg/kg, read-out: AUC0→t i.v.) came out at 4480 ng·h/mL. Besides, the AUC(0-inf) in data set [1] (setting [7]) was determined as 4480 ng·h/mL. Further, the bioavailability in data set [1] was 58.8%. Further, the half-life in data set [1] (setting [8]) was 4.82 h. Moreover, the AUC(0-t) in data set [1] (setting [9]) worked out at 7900 ng·h/mL. The AUC(0-inf) in data set [1] (setting [10]) was 8150 ng·h/mL. The Tmax in data set [1] (setting [11]) was 1 h. For the same compound, in data set [1] (i.v. 10 mg/kg), the AUC0→t/Dose i.v. is 448.46 (µg/L*h)/(mg/kg), the “AUC0→∞/Dose i.v.” value is on record as 448.48 (µg/L*h)/(mg/kg) and the Cmax/Dose i.v. is recorded as 726.66 (µg/L)/(mg/kg). For the same compound, in data set [1] (oral 30 mg/kg), the “AUC0→t/Dose Oral” value is listed as 263.50 (µg/L*h)/(mg/kg), the “AUC0→∞/Dose Oral” value is reported as 271.51 (µg/L*h)/(mg/kg) and the “Cmax/Dose Oral” value is 33.58 (µg/L)/(mg/kg). For the same compound, the 50% inhibitory concentration (IC50) at human A2A AR [2] is 63.6 ± 13 nM. For the same compound, at human A2A AR [3], the half-inhibitory concentration (IC50) came out at 6.007 ± 0.05 nM, the inhibition at 0.01 µM was determined as 32.7 ± 1.8%, the inhibition at 0.1 µM worked out at 95.9 ± 3.36% and the inhibition at 1 µM came out at 103 ± 2.82%.
